Reference: patent US20240116910A1, “Heterocycles as WIP1 Inhibitors” (PMV Pharmaceuticals, Inc., priority 2022, published 2024)

Target: recombinant His-tag Wip1(2-420) protein (amino acids #2-420) (Homo sapiens (Human), UniProt O15297)
Test: Wip1(2-420) phosphatase enzyme FDP assay
Format: biochemical
Conditions: fluorescein diphosphate (FDP) substrate, RT 2 hours, fluorescence Ex485/Em535; read-out: WIP1 (Truncated 2-420) FDP Assay: IC50

Chain of recombinant His-tag Wip1(2-420) protein (amino acids #2-420) (O15297 2-420): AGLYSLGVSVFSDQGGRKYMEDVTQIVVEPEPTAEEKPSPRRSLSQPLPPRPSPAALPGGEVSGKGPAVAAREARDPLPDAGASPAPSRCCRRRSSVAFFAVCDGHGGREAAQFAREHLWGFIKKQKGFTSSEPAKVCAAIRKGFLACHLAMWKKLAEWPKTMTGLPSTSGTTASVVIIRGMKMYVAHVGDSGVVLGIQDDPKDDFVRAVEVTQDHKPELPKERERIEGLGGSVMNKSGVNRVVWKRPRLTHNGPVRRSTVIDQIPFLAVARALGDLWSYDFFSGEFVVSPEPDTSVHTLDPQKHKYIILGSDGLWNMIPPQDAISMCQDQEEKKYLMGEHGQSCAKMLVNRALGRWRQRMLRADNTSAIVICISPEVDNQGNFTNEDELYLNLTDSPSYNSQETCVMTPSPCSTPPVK

Row | IC50 | Structure (SMILES)
1 | 208 nM | Cc1ncc(Cl)cc1N[C@@H](C)c1ccc(C(=O)N[C@@H](CC2CCCC2)C(=O)NCC(=O)O)s1 [Compound 93, 2-[(2S)-2-({5-[(1S)-1-[(5-chloro-2-methylpyridin-3-yl)amino]ethyl]thiophen-2-yl}formamido)-3-cyclopentylpropanamido]acetic acid]
2 | 10 nM | CC(Nc1cc(Cl)cnc1C(N)=O)c1ccc(C(=O)N[C@@H](CC2CCCC2)C(=O)NC23CC(C2)C3)s1 (stereo partly drawn) [Compound 172, 3-{[1-(5-{[(1S)-1-({bicyclo[1.1.1]pentan-1-yl}carbamoyl)-2-cyclopentylethyl]carbamoyl}thiophen-2-yl)ethyl]amino}-5-chloropyridine-2-carboxamide]
3 | 6 nM | Cc1ncc(Cl)cc1N[C@@H](C)c1ccc(C(=O)N[C@@H](CC2CCCC2)C(=O)Nc2cnn(CC(F)(F)F)c2)s1 [Compound 147, (2S)-2-({5-[(1S)-1-[(5-chloro-2-methylpyridin-3-yl)amino]ethyl]thiophen-2-yl}formamido)-3-cyclopentyl-N-[1-(2,2,2-trifluoroethyl)-1H-pyrazol-4-yl]propanamide]
4 | 13 nM | Cc1ncc(Cl)cc1N[C@@H](C)c1ccc(C(=O)N[C@@H](CC2CCCC2)C(=O)NC2CCC(O)C2)s1 (stereo partly drawn) [Compound 263, (2S)-2-({5-[(1S)-1-[(5-chloro-2-methylpyridin-3-yl)amino]ethyl]thiophen-2-yl}formamido)-3-cyclopentyl-N-(3-hydroxycyclopentyl)propanamide]
5 | 68 nM | Cc1ncc(Cl)cc1N[C@H](Cc1ccc(F)cc1)c1ccc(C(=O)N[C@@H](CC2CCCC2)C(=O)NC2CC2)s1 [Compound 222, (2S)-2-({5-[(1R)-1-[(5-chloro-2-methylpyridin-3-yl)amino]-2-(4-fluorophenyl)ethyl]thiophen-2-yl}formamido)-3-cyclopentyl-N-cyclopropylpropanamide]
6 | 76 nM | C[C@@H](c1ccc(C(=O)N[C@@H](CC2CCCC2)C(=O)NC23CC(C2)C3)s1)N(C)c1cncc(Cl)c1 [Compound 96, (2S)-N-{bicyclo[1.1.1]pentan-1-yl}-2-({5-[(1S)-1-[(5-chloropyridin-3-yl)(methyl)amino]ethyl]thiophen-2-yl}formamido)-3-cyclopentylpropanamide]
7 | 8 nM | Cc1ncc(Cl)cc1N[C@@H](C)c1ccc(C(=O)N[C@@H](CC2CCCC2)C(=O)NC23CCC(CC2)CC3)s1 [Compound 257, (2S)-N-{bicyclo[2.2.2]octan-1-yl}-2-({5-[(1S)-1-[(5-chloro-2-methylpyridin-3-yl)amino]ethyl]thiophen-2-yl}formamido)-3-cyclopentylpropanamide]
8 | 10 nM | C[C@H](Nc1cc(Cl)cnc1C(F)(F)F)c1ccc(C(=O)N[C@@H](CC2CCCC2)C(=O)NC2CC2)s1 [Compound 189, (2S)-2-({5-[(1S)-1-{[5-chloro-2-(trifluoromethyl)pyridin-3-yl]amino}ethyl]thiophen-2-yl}formamido)-3-cyclopentyl-N-cyclopropylpropanamide]
9 | 40 nM | Cc1ncc(Cl)cc1N[C@H](Cc1ccccc1)c1ccc(C(=O)N[C@@H](CC2CCCC2)C(=O)NC2CC2)s1 [Compound 261, (2S)-2-({5-[(1R)-1-[(5-chloro-2-methylpyridin-3-yl)amino]-2-phenylethyl]thiophen-2-yl}formamido)-3-cyclopentyl-N-cyclopropylpropanamide]
10 | 4870 nM | Cc1ncc(Cl)cc1N[C@@H](C)c1ccc(C(=O)N[C@H](CC23CCC(CC2)CC3)C(=O)NC2CC2)s1 [Compound 255, (2R)-3-{bicyclo[2.2.2]octan-1-yl}-2-({5-[(1S)-1-[(5-chloro-2-methylpyridin-3-yl)amino]ethyl]thiophen-2-yl}formamido)-N-cyclopropylpropanamide]
11 | 314 nM | Cc1ncc(Cl)cc1N[C@H](C)c1ccc(C(=O)N[C@@H](CC2CCCC2)C(=O)N[C@@H]2CC2(F)F)s1 [Compound 22, (2S)-2-({5-[(1R)-1-[(5-chloro-2-methylpyridin-3-yl)amino]ethyl]thiophen-2-yl}formamido)-3-cyclopentyl-N-[(1R)-2,2-difluorocyclopropyl]propanamide]
12 | 15 nM | CC(Nc1cc(Cl)cnc1C(N)=O)c1ccc(C(=O)N[C@@H](CC2CC3CC3C2)C(=O)Nc2cnn(C)c2)s1 (stereo partly drawn) [Compound 146, 3-{[1-(5-{[(1S)-2-{bicyclo[3.1.0]hexan-3-yl}-1-[(1-methyl-1H-pyrazol-4-yl)carbamoyl]ethyl]carbamoyl}thiophen-2-yl)ethyl]amino}-5-chloropyridine-2-carboxamide]
13 | 196 nM | C[C@@H](Nc1cc(Cl)cnc1-c1cccc(Cl)c1)c1ccc(C(=O)N[C@@H](CC2CCCC2)C(=O)NC2CC2)s1 [Compound 230, (2S)-2-({5-[(1R)-1-{[5-chloro-2-(3-chlorophenyl)pyridin-3-yl]amino}ethyl]thiophen-2-yl}formamido)-3-cyclopentyl-N-cyclopropylpropanamide]
14 | 472 nM | C[C@@H](Nc1cc(Cl)cnc1CO)c1ccc(C(=O)N[C@@H](CC2CCCC2)C(=O)NC2CC2)s1 [Compound 106, (2S)-2-({5-[(1R)-1-{[5-chloro-2-(hydroxymethyl)129yridine-3-yl]amino}ethyl]thiophen-2-yl}formamido)-3-cyclopentyl-N-cyclopropylpropanamide]
15 | 13 nM | C[C@@H](Nc1cc(Cl)nc2ccnn12)c1ccc(C(=O)N[C@@H](CC2CCCC2)C(=O)NC2CC2)s1 [Compound 259, (2S)-2-({5-[(1R)-1-({5-chloropyrazolo[1,5-a]pyrimidin-7-yl}amino)ethyl]thiophen-2-yl}formamido)-3-cyclopentyl-N-cyclopropylpropanamide]
16 | 217 nM | Cc1ncc(Cl)cc1N[C@H](Cc1cnn(C)c1)c1ccc(C(=O)N[C@@H](CC2CCCC2)C(=O)NC2CC2)s1 [Compound 170, (2S)-2-({5-[(1R)-1-[(5-chloro-2-methylpyridin-3-yl)amino]-2-(1-methyl-1H-pyrazol-4-yl)ethyl]thiophen-2-yl}formamido)-3-cyclopentyl-N-cyclopropylpropanamide]
17 | 132 nM | Cc1ncc(Cl)cc1NC(c1ccc(C(=O)N[C@@H](CC2CCCC2)C(=O)NC2CC2)s1)C(F)(F)F (stereo partly drawn) [Compound 224, (2S)-2-[(5-{1-[(5-chloro-2-methylpyridin-3-yl)amino]-2,2,2-trifluoroethyl}thiophen-2-yl)formamido]-3-cyclopentyl-N-cyclopropylpropanamide]
18 | 156 nM | C[C@H](c1ccc(C(=O)N[C@@H](CC2CCCC2)C(=O)NC2CC2)s1)N1CCCc2ccc(Cl)cc21 [Compound 249, (2S)-2-({5-[(1R)-1-(7-chloro-1,2,3,4-tetrahydroquinolin-1-yl)ethyl]thiophen-2-yl}formamido)-3-cyclopentyl-N-cyclopropylpropanamide]
19 | 482 nM | COc1cccc(-c2ncc(Cl)cc2N[C@H](C)c2ccc(C(=O)N[C@@H](CC3CCCC3)C(=O)NC3CC3)s2)c1 [Compound 268, (2S)-2-({5-[(1R)-1-{[5-chloro-2-(3-methoxyphenyl)pyridin-3-yl]amino}ethyl]thiophen-2-yl}formamido)-3-cyclopentyl-N-cyclopropylpropanamide]
20 | 8 nM | Cc1ncc(Cl)cc1N[C@@H](C)c1ccc(C(=O)N[C@@H](CC2CCCC2)C(=O)Nc2cn[nH]c2)s1 [Compound 227, (2S)-2-({5-[(1S)-1-[(5-chloro-2-methylpyridin-3-yl)amino]ethyl]thiophen-2-yl}formamido)-3-cyclopentyl-N-(1H-pyrazol-4-yl)propanamide]
21 | 19 nM | Cc1ncc(Cl)cc1N[C@@H](C)c1ccc(C(=O)N[C@@H](CC2CCCC2)C(N)=O)s1 [Compound 138, (2S)-2-({5-[(1S)-1-[(5-chloro-2-methylpyridin-3-yl)amino]ethyl]thiophen-2-yl}formamido)-3-cyclopentylpropanamide]
22 | 6 nM | Cc1ncc(Cl)cc1N[C@@H](C)c1ccc(C(=O)N[C@@H](CC2CCCC2)C(=O)Nc2cnn(C(C)(C)C)c2)s1 [Compound 149, (2S)-N-(1-tert-butyl-1H-pyrazol-4-yl)-2-({5-[(1S)-1-[(5-chloro-2-methylpyridin-3-yl)amino]ethyl]thiophen-2-yl}formamido)-3-cyclopentylpropanamide]
23 | 6 nM | Cc1ncc(Cl)cc1N[C@@H](C)c1ccc(C(=O)N[C@@H](CC2CCCC2)C(=O)Nc2cnn(C3COC3)c2)s1 [Compound 144, (2S)-2-({5-[(1S)-1-[(5-chloro-2-methylpyridin-3-yl)amino]ethyl]thiophen-2-yl}formamido)-3-cyclopentyl-N-[1-(oxetan-3-yl)-1H-pyrazol-4-yl]propanamide]
24 | 4 nM | Cc1ncc(Cl)cc1N[C@@H](C)c1ccc(C(=O)NC(CC2CCCC2)C(=O)Nc2c[nH]nn2)s1 (stereo partly drawn) [Compound 134, 2-({5-[(1S)-1-[(5-chloro-2-methylpyridin-3-yl)amino]ethyl]thiophen-2-yl}formamido)-3-cyclopentyl-N-(1H-1,2,3-triazol-4-yl)propanamide]
25 | 20 nM | Cc1ncc(Cl)cc1N[C@@H](Cc1ccccc1)c1ccc(C(=O)N[C@@H](CC2CCCC2)C(=O)NC23CC(C#N)(C2)C3)s1 [Compound 214, (2S)-2-({5-[(1S)-1-[(5-chloro-2-methylpyridin-3-yl)amino]-2-phenylethyl]thiophen-2-yl}formamido)-N-{3-cyanobicyclo[1.1.1]pentan-1-yl}-3-cyclopentylpropanamide]
26 | 37 nM | Cc1ncc(Cl)cc1N[C@H](c1ccc(C(=O)N[C@@H](CC2CCCC2)C(=O)NC23CC(C2)C3)s1)C(F)(F)F [Compound 187, (2S)-N-{bicyclo[1.1.1]pentan-1-yl}-2-({5-[(1S)-1-[(5-chloro-2-methylpyridin-3-yl)amino]-2,2,2-trifluoroethyl]thiophen-2-yl}formamido)-3-cyclopentylpropanamide]
27 | 6 nM | Cc1ncc(Cl)cc1N[C@@H](C)c1ccc(C(=O)N[C@@H](CC2CCC3CC32)C(=O)NC23CC(C2)C3)s1 (stereo partly drawn) [Compound 110, (2S)-N-{bicyclo[1.1.1]pentan-1-yl}-3-{bicyclo[3.1.0]hexan-2-yl}-2-({5-[(1S)-1-[(5-chloro-2-methylpyridin-3-yl)amino]ethyl]thiophen-2-yl}formamido)propanamide]
